Results as given in the supplement of paper PMC10307832.

Legend:
Assay in all cases: relative viability (nuclei count vs DMSO), 5 days (fraction); higher = more cells survive
[1] = compound: C#Cc1cccc(Nc2ncnc3cc(OCCOC)c(OCCOC)cc23)c1 [Erlotinib] + CC(C)C[C@H](NC(=O)[C@H](Cc1ccccc1)NC(=O)c1cnccn1)B(O)O [Bortezomib] (partner 0.002 µM)
Outline: (§1)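 Dosing by pin tool came one day after lung cancer cell lines were seeded in 1536-well plates, using either one drug or a fixed anchor-drug dose plus five library-drug doses (not always all listed) in √10 steps. After 5 days, nuclei were counted on 4× images. Relative viability is treated-well nuclei count divided by vehicle-well nuclei count, and values are medians of duplicate plates.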

[2] = compound: C#Cc1cccc(Nc2ncnc3cc(OCCOC)c(OCCOC)cc23)c1 [Erlotinib] + C[C@@H](Oc1cc(-c2cnn(C3CCNCC3)c2)cnc1N)c1c(Cl)ccc(F)c1Cl [Crizotinib] (partner 1 µM)
Outline: as §1

[3] = compound: C#Cc1cccc(Nc2ncnc3cc(OCCOC)c(OCCOC)cc23)c1 [Erlotinib] + Cc1nc(Nc2ncc(C(=O)Nc3c(C)cccc3Cl)s2)cc(N2CCN(CCO)CC2)n1 [Dasatinib] (partner 0.075 µM)
Outline: as §1

[4] = compound: C#Cc1cccc(Nc2ncnc3cc(OCCOC)c(OCCOC)cc23)c1 [Erlotinib] + Nc1nc2[nH]cc(CCc3ccc(C(=O)N[C@@H](CCC(=O)O)C(=O)O)cc3)c2c(=O)[nH]1 [Pemetrexed] (partner 0.2 µM)
Outline: as §1

[5] = compound: O=C(Nc1c[nH]nc1-c1nc2ccc(CN3CCOCC3)cc2[nH]1)NC1CC1 [AT9283] + O=C(CCCCCCC(=O)Nc1ccccc1)NO [Vorinostat] (partner 1 µM)
Outline: as §1

Cell Line | relative viability ([1]; first compound 0.02 µM) | relative viability ([1]; first compound 0.2 µM) | relative viability ([1]; first compound 0.6325 µM) | relative viability ([1]; first compound 2 µM) | relative viability ([2]; first compound 0.02 µM) | relative viability ([2]; first compound 0.2 µM) | relative viability ([2]; first compound 0.6325 µM) | relative viability ([2]; first compound 2 µM) | relative viability ([3]; first compound 0.02 µM) | relative viability ([3]; first compound 0.2 µM) | relative viability ([3]; first compound 0.6325 µM) | relative viability ([3]; first compound 2 µM) | relative viability ([4]; first compound 0.02 µM) | relative viability ([4]; first compound 0.2 µM) | relative viability ([4]; first compound 2 µM) | relative viability ([5]; first compound 0.003 µM) | relative viability ([5]; first compound 0.03 µM) | relative viability ([5]; first compound 0.09487 µM) | relative viability ([5]; first compound 0.3 µM) | relative viability ([4]; first compound 0.6325 µM)
NCI-H520 | 0.75 | 0.261 | 0.722 | 0.455 | 0.683 | 0.9 | 0.987 | 0.68 | 0.188 | 0.186 | 0.245 | 0.234 | 0.847 | 0.749 | 0.609 | 0.56 | 0.271 | 0.223 | 0.235 | –
NCI-H596 | 1.01 | 0.993 | 1.09 | 0.93 | 0.952 | 0.961 | 1.02 | 0.828 | 0.634 | 0.565 | 0.538 | 0.472 | 0.609 | 0.455 | 0.457 | 0.642 | 0.675 | 0.686 | 0.428 | 0.489
NCI-H647 | 1.05 | 0.961 | 1.36 | 0.795 | 1.2 | 1.09 | 1.26 | 0.811 | 0.274 | 0.117 | 0.221 | 0.144 | 0.173 | 0.187 | 0.151 | 0.466 | 0.323 | 0.126 | 0.12 | 0.19
NCI-H650 | 0.749 | 0.88 | 0.958 | – | 0.735 | 0.803 | 0.903 | 0.662 | 0.38 | 0.456 | 0.526 | 0.425 | 0.966 | 0.852 | 1 | 0.405 | 0.375 | 0.282 | 0.146 | 0.991
NCI-H661 | 0.887 | 0.555 | 0.881 | 0.646 | 1.16 | – | 1.04 | 0.97 | 0.912 | 0.693 | 0.735 | 0.443 | 0.925 | 0.841 | 0.828 | 0.858 | 0.359 | 0.316 | 0.384 | 0.838
NCI-H838 | 0.8 | 0.491 | 1.18 | 0.694 | 0.953 | 0.838 | 0.907 | 0.693 | 0.29 | 0.308 | 0.288 | 0.317 | 0.263 | 0.253 | 0.266 | 0.68 | 0.221 | 0.194 | 0.24 | 0.233
NCI-H1355 | 1.14 | 1.1 | 1.24 | 0.992 | 1.1 | 0.999 | 0.944 | 0.789 | 0.701 | 0.571 | 0.666 | 0.472 | 1.06 | 0.995 | – | 0.602 | 0.452 | 0.388 | 0.169 | 1.03
